According to paper PMC12495412, “Coumarin/nitrogen-bearing heterocyclic hybrid-loaded electrospun PMMA/PVP nanofibrous scaffolds for accelerating topical wound healing rates: synthesis and in vitro bio-evaluation” (RSC Advances, 2025):
Marks after values point to notes of the source that are not given here.

Legend:
Assay type in all cases: cell-based
Bacillus cereus [1] = assay: Agar-well diffusion of formulations; conditions: 50 μL per 5 mm well, 37 °C
Description: (§1) The antimicrobial qualities of formulations were evaluated in this study using a variety of techniques. The formulations including 8 PMMA and 2 PVP, which contained varying doses of drug A (0.5% = T1, 1% = T2, 3% = T3, and 5% = T4) or drug B (0.5% = T5, 1% = T6, 3% = T7, and 5% = T8), as well as a combination of 2.5% of drug A and 2.5% of drug B (T9) were assessed. The tested human pathogens were cultivated in a nutritional broth medium containing 0.5% peptone, 0.3% yeast extract, 0.2% beef extract, 0.1% glucose, and 0.5% NaCl in accordance with 0.5 McFarland turbidity criteria.[25] To carry out the agar-well diffusion analysis, microbial cultures (100 μL) were spread on nutrient agar plates using sterile cotton swabs. After drilling each well with a sterile cork-borer of 5 mm in diameter, 50 μL of the tested formulations and the control (composed of 8 PMMA and 2 PVP) were loaded. Agar plates were thereafter left to incubate at 37 °C for an entire day. The inhibitory zone that surrounds each well was measured in millimeters (mm) using a ruler.[26]

Bacillus subtilis [2] = assay: Agar-well diffusion of formulations; conditions: 50 μL per 5 mm well, 37 °C
Description: as §1

Candida albicans [3] = assay: Agar-well diffusion of formulations; conditions: 50 μL per 5 mm well, 37 °C
Description: as §1

Candida glabrata [4] = assay: Agar-well diffusion of formulations; conditions: 50 μL per 5 mm well, 37 °C
Description: as §1

Candida krusei [5] = assay: Agar-well diffusion of formulations; conditions: 50 μL per 5 mm well, 37 °C
Description: as §1

Candida parapsilosis [6] = assay: Agar-well diffusion of formulations; conditions: 50 μL per 5 mm well, 37 °C
Description: as §1

Escherichia coli [7] = assay: Agar-well diffusion of formulations; conditions: 50 μL per 5 mm well, 37 °C
Description: as §1

Klebsiella pneumoniae [8] = assay: Agar-well diffusion of formulations; conditions: 50 μL per 5 mm well, 37 °C
Description: as §1

Pseudomonas aeruginosa [9] = assay: Agar-well diffusion of formulations; conditions: 50 μL per 5 mm well, 37 °C
Description: as §1

Salmonella paratyphi [10] = assay: Agar-well diffusion of formulations; conditions: 50 μL per 5 mm well, 37 °C
Description: as §1

Staphylococcus aureus [11] = assay: Agar-well diffusion of formulations; conditions: 50 μL per 5 mm well, 37 °C
Description: as §1

[12] = system: Staphylococcus epidermidis; assay: Agar-well diffusion of formulations; conditions: 50 μL per 5 mm well, 37 °C
Description: as §1

[13] = system: multidrug-resistant human pathogens; assay: Agar-well diffusion of formulations, whole panel; conditions: all human pathogens investigated
Description: as §1

Bacillus cereus [14] = assay: Biofilm inhibition test (spectrophotometric); conditions: 24 h, 37 °C, OD vs untreated
Description: (§2) Additionally, a spectrophotometric antibiofilm assay was utilized to determine whether the evaluated formulations might inhibit the growth of pathogens. Fresh nutritional broth was inoculated with each pathogen separately, and this mixture was then incubated at 37 °C at 200 rpm. The optical density (OD) at 600 nm was measured over a 6 h incubation period, allowing for an estimation of the starting microbe's exponential phase (3 × 10^7 CFU mL^−1). To produce treated cultures, 900 μL of planktonic cultures were collected aseptically with 100 μL of each formulation. Furthermore, untreated (formula-free) cultures of pathogens were grown as controls. The cultures were then incubated for 24 hours at 200 rpm and 37 °C. Through spectroscopic evaluation of microbial turbidity, the inhibitory effects of the examined formulations were determined.[27] By comparing the OD of the treated sample with the matching controls, anti-biofilm percentages for each formula were computed.[28]

Bacillus subtilis [15] = assay: Biofilm inhibition test (spectrophotometric); conditions: 24 h, 37 °C, OD vs untreated
Description: as §2

Candida albicans [16] = assay: Biofilm inhibition test (spectrophotometric); conditions: 24 h, 37 °C, OD vs untreated
Description: as §2

Candida glabrata [17] = assay: Biofilm inhibition test (spectrophotometric); conditions: 24 h, 37 °C, OD vs untreated
Description: as §2

Candida krusei [18] = assay: Biofilm inhibition test (spectrophotometric); conditions: 24 h, 37 °C, OD vs untreated
Description: as §2

Candida parapsilosis [19] = assay: Biofilm inhibition test (spectrophotometric); conditions: 24 h, 37 °C, OD vs untreated
Description: as §2

Escherichia coli [20] = assay: Biofilm inhibition test (spectrophotometric); conditions: 24 h, 37 °C, OD vs untreated
Description: as §2

Klebsiella pneumoniae [21] = assay: Biofilm inhibition test (spectrophotometric); conditions: 24 h, 37 °C, OD vs untreated
Description: as §2

Pseudomonas aeruginosa [22] = assay: Biofilm inhibition test (spectrophotometric); conditions: 24 h, 37 °C, OD vs untreated
Description: as §2

Salmonella paratyphi [23] = assay: Biofilm inhibition test (spectrophotometric); conditions: 24 h, 37 °C, OD vs untreated
Description: as §2

Staphylococcus aureus [24] = assay: Biofilm inhibition test (spectrophotometric); conditions: 24 h, 37 °C, OD vs untreated
Description: as §2

[25] = system: Staphylococcus epidermidis; assay: Biofilm inhibition test (spectrophotometric); conditions: 24 h, 37 °C, OD vs untreated
Description: as §2

## O=C(Nc1ccc(Nc2c3ccccc3nc3ccccc23)cc1)c1cc2ccccc2oc1=O [Compound C3]
Bacillus cereus [1]
  Inhibition zone diameters: 0 mm
Bacillus subtilis [2]
  Inhibition zone diameters: 0 mm
Candida albicans [3]
  Inhibition zone diameters: 9.29 ± 1.25^fg mm
Candida glabrata [4]
  Inhibition zone diameters: 0 mm
Candida krusei [5]
  Inhibition zone diameters: 0 mm
Candida parapsilosis [6]
  Inhibition zone diameters: 7.25 ± 2.33^fg mm
Escherichia coli [7]
  Inhibition zone diameters: 0 mm
Klebsiella pneumoniae [8]
  Inhibition zone diameters: 0 mm
Pseudomonas aeruginosa [9]
  Inhibition zone diameters: 0 mm
Salmonella paratyphi [10]
  Inhibition zone diameters: 0 mm
Staphylococcus aureus [11]
  Inhibition zone diameters: 0 mm
[12]
  Inhibition zone diameters: 0 mm
[13]
  Antimicrobial effect: only has an impact on a few examined yeast infections
Bacillus cereus [14]
  Biofilm reduction: 23.36 ± 2.96^h %
Bacillus subtilis [15]
  Biofilm reduction: 37.29 ± 2.84^h %
Candida albicans [16]
  Biofilm reduction: 27.13 ± 3.96^h %
Candida glabrata [17]
  Biofilm reduction: 35.48 ± 2.58^h %
Candida krusei [18]
  Biofilm reduction: 29.91 ± 2.44^h %
Candida parapsilosis [19]
  Biofilm reduction: 25.79 ± 1.98^h %
Escherichia coli [20]
  Biofilm reduction: 20.93 ± 3.64^h %
Klebsiella pneumoniae [21]
  Biofilm reduction: 20.56 ± 2.65^h %
Pseudomonas aeruginosa [22]
  Biofilm reduction: 22.35 ± 2.58^h %
Salmonella paratyphi [23]
  Biofilm reduction: 22.55 ± 1.87^h %
Staphylococcus aureus [24]
  Biofilm reduction: 31.25 ± 2.98^h %
[25]
  Biofilm reduction: 34.71 ± 1.56^h %
